Activity calls are given as the source filed them. The calls are words filed in the database; no cut-off is given here.

One compound from ChEMBL document CHEMBL3046417 (2009) can be followed below.

Test [1] deals with Cnaphalocrocis medinalis. Nature of the test: Reduction of larval weight gain in third-instar of Cnaphalocrocis medinalis in IR20 rice plant leaf at 6 ppm after 48 hr (reference value: 23.7 mg). It counts as functional.
The subject of test [2] is Cnaphalocrocis medinalis. Nature of the test: Reduction of egg production in third-instar of Cnaphalocrocis medinalis in IR20 rice plant leaf assessed as oviposition deterrence index at 6 ppm relative to control. It counts as functional. More on the design: scale not given: the % may be the effect or the level left.
Test [3] deals with Cnaphalocrocis medinalis. Briefly: Reduction of fecundity in third-instar of Cnaphalocrocis medinalis in IR20 rice plant leaf at 25 ppm relative to control. Further details: scale not given: the % may be the effect or the level left. It is filed as functional.
Test [4] relates to Cnaphalocrocis medinalis. Nature of the test: Reduction of larval normal weight gain time in third-instar of Cnaphalocrocis medinalis in IR20 rice plant leaf at 3 ppm after 25 days (reference value: 23.5 +/- 0.56 days). It counts as functional.
Test [5] concerns Cnaphalocrocis medinalis. Briefly: Reduction of egg production in third-instar of Cnaphalocrocis medinalis in IR20 rice plant leaf assessed as oviposition deterrence index at 12 ppm relative to control. It counts as functional. Further details: scale not given: the % may be the effect or the level left.
For test [6], the system named is Cnaphalocrocis medinalis. Nature of the test: Antifeedant activity against fourth-instar of Cnaphalocrocis medinalis in IR20 rice plant leaf assessed as leaf scraped at 12 ppm after 24 hr. It counts as functional.
The test system of test [7] is Cnaphalocrocis medinalis. Nature of the test: Reduction of egg fertility in third-instar of Cnaphalocrocis medinalis in IR20 rice plant leaf assessed as oviposition deterrence index at 6 to 12 ppm. It counts as functional, organism-based.
The test system of test [8] is Cnaphalocrocis medinalis. Briefly: Antifeedant activity against fourt-instar of Cnaphalocrocis medinalis in IR20 rice plant leaf assessed as leaf scraped at 1.5 ppm after 24 hr. It is filed as functional.
Test [9] relates to Cnaphalocrocis medinalis. Briefly: Reduction of fecundity in third-instar of Cnaphalocrocis medinalis in IR20 rice plant leaf at 3 ppm relative to control. It counts as functional. Further details: scale not given: the % may be the effect or the level left.
Test [10] relates to Cnaphalocrocis medinalis. Briefly: Antifeedant activity against fourth-instar of Cnaphalocrocis medinalis in IR20 rice plant leaf at 6 ppm after 4 days. It is filed as functional.
Test [11] concerns Cnaphalocrocis medinalis. Briefly: Reduction of larval normal weight gain time in third-instar of Cnaphalocrocis medinalis in IR20 rice plant leaf at 6 ppm after 25 days (reference value: 23.5 +/- 0.56 days). It counts as functional.
For test [12], the system named is Cnaphalocrocis medinalis. Nature of the test: Antifeedant activity against fourth-instar of Cnaphalocrocis medinalis in IR20 rice plant leaf assessed as leaf scraped at 12 ppm after 48 hr. It is filed as functional, organism-based.
The test system of test [13] is Cnaphalocrocis medinalis. Briefly: Antifeedant activity against fourth-instar of Cnaphalocrocis medinalis in IR20 rice plant leaf at 1.5 to 3 ppm after 4 days. It counts as functional, organism-based.
The test system of test [14] is Cnaphalocrocis medinalis. Nature of the test: Antifeedant activity against fourth-instar of Cnaphalocrocis medinalis in IR20 rice plant leaf at 12 ppm after 4 days. It counts as functional, organism-based.
Test [15] deals with Cnaphalocrocis medinalis. Briefly: Reduction of larval weight gain in third-instar of Cnaphalocrocis medinalis in IR20 rice plant leaf at 6 ppm after 25 days. It counts as functional.
Test [16] concerns Cnaphalocrocis medinalis. Nature of the test: Reduction of larval normal weight gain time in third-instar of Cnaphalocrocis medinalis in IR20 rice plant leaf at 12 ppm after 25 days (reference value: 23.5 +/- 0.56 days). It counts as functional.
Test [17] concerns Cnaphalocrocis medinalis. Briefly: Reduction of larval weight gain in third-instar of Cnaphalocrocis medinalis in IR20 rice plant leaf at 3 ppm after 48 hr (reference value: 23.7 mg). It is filed as functional.
In test [18] the test system is Cnaphalocrocis medinalis. Briefly: Reduction of larval weight gain in third-instar of Cnaphalocrocis medinalis in IR20 rice plant leaf at 12 ppm after 48 hr (reference value: 23.7 mg). It counts as functional.
Test [19] concerns Cnaphalocrocis medinalis. Nature of the test: Reduction of fecundity in third-instar of Cnaphalocrocis medinalis in IR20 rice plant leaf at 6 ppm relative to control. It is filed as functional. More on the design: scale not given: the % may be the effect or the level left.

As for `CC(C)=CC(=O)C[C@@H](C)[C@H]1CC[C@@]2(C)[C@@H]3CC[C@@H]4[C@@]5(CC(=O)OC[C@@]4(C)C(=O)O)C[C@@]35CC[C@]12C` [BEDDOMEILACTONE], the Activity is listed as 10.2 mg in test [1]; 60% in test [2]; 3% in test [3]; 83% in test [5]; 0.87 cm2 in test [6]; 8.97 cm2 in test [8]. Further, the Activity in test [9] is reported as 39%; in test [10], 80%; in test [15] it was 12.1 mg; in test [17] it was 13.6 mg; in test [18] it was 7.2 mg; in test [19], 19%. Also, the figures for the Time in test [4], in test [11] and in test [16] were 37.2 days, 39.2 days and 48.3 days, respectively. The result in test [7], in [12], in test [13] and in test [14] was Active.
